“Also recorded” adds a separate entry of the source. Read-outs that look alike come from different tables or passages of the source.
What was measured:
[1] = molecular target: T1, human A3AR (Homo sapiens, UniProt P0DMS8); experiment: GloSensor cAMP accumulation assay (agonism/antagonism) at A3AR in CHO cells; type: cell-based; parameters: expressed in transfected cells; host or cells: CHO cells stably expressing A3AR and the GloSensor biosensor plasmid; conditions: for IC50: antagonism: counteracting agonist (NECA 1 μM) induced decrease of cAMP, forskolin 10 μM, mean ± S.E.; for functional behaviour at A3AR (agonist/antagonist): forskolin 10 µM stimulated cAMP, compared to Cl-IB-MECA
T1 sequence (P0DMS8 1-318): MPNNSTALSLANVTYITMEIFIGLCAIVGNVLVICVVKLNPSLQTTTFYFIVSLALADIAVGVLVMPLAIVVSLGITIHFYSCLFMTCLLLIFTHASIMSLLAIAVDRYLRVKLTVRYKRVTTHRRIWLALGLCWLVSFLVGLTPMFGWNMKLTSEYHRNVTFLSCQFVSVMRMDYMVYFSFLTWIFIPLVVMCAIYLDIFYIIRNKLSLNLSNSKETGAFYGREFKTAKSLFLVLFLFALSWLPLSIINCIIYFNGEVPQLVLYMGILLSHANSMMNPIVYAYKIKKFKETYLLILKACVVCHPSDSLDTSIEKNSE
Description: CHO cells stable expressing A2B or A3ARs and the plasmid encoding the biosensor were used to study functional agonism and antagonism of understudy ligands. The desired cell number was incubated in equilibration medium containing a 3% v/v GloSensor cAMP reagent stock solution, 10% FBS and 87% of CO2 independent media. After 2 h of incubation, cells were dispensed in wells of 384 well plate and when a steady-state basal signal was obtained the agonism profile was studied, adding to wells the reference agonist NECA or compounds at different concentrations. In the case of the Gi coupled receptor A3AR Forskolin (FSK) 10 μM was added 10 min after the agonists and various luminescence readings were performed at different incubation times.
The antagonist profile of the compounds was evaluated by assessing their ability to counteract an agonist-induced increase or decrease (A2B and A3ARs, respectively) of cAMP accumulation. The cells were incubated with different antagonist concentrations and then treated with a fixed dose of NECA (10 μM for A2BAR and 1 μM for A3AR). FSK 10 μM was added 10 min after the agonists and various luminescence reads were performed at different incubation times.
Responses were expressed as percentage of the maximal relative luminescence units (RLU) and concentration–response curves were fitted by a nonlinear regression with the Prism program (GraphPAD Software, San Diego, CA, USA). The agonist or antagonist profile of compounds was expressed as EC50 or IC50, respectively. Each concentration was tested three–five times in duplicate and the values are given as the mean ± S.E.

[2] = molecular target: T1, human A3AR; experiment: Radioligand binding assay, displacement of [3H]HEMADO in CHO cell membranes; conditions: for A1/A3: A3AR selectivity vs A1AR; for A1/A3 / A2A/A3: ratio of Ki values; for A2A/A3: A3AR selectivity vs A2AAR; for Ki: [3H]HEMADO, CHO membranes, mean ± S.E., n = 3-5, read-out: hA3R (Ki nM)
Description: In the case of A2BAR, the potency of selected compounds was determined through a functional GloSensor cAMP assay.
(§1) All pharmacological methods followed the procedures as described earlier. In brief, membranes for radioligand binding were prepared from CHO cells stably transfected with human adenosine receptor subtypes through two centrifugations at different speeds. The first low-speed (1000 g) centrifugation allowed the removing of cell fragments and nuclei, while the second, performed at high speed (100,000 g), allowed the precipitation of the crude membrane fractions.
(§2) The binding affinity of the novel compounds was evaluated using radioligand competition experiments in CHO cells stably expressing hA1AR, hA2AAR, and hA3AR subtypes. […] Results were expressed as Ki values (dissociation constants), which were calculated with the program GraphPad (GraphPAD Software, San Diego, CA, USA). Each concentration was tested three–five times in duplicate and the values are given as the mean ± standard error (S.E.).

[3] = molecular target: T2, human recombinant A1AR (Homo sapiens, UniProt P30542); experiment: Radioligand binding assay, displacement of [3H]CCPA in CHO cell membranes; conditions: mean ± S.E., n = 3-5, read-out: hA1R (Ki nM)
T2 sequence (P30542 1-326): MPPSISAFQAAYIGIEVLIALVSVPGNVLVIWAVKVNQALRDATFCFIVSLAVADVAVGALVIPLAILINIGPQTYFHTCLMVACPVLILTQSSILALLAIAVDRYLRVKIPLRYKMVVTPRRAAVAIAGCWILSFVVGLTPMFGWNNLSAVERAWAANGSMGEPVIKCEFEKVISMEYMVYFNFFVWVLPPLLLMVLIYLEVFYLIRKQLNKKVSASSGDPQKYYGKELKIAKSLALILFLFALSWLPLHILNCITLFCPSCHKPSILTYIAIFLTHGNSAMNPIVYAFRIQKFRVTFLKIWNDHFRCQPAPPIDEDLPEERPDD
Description: (§3) [^3H]CCPA (2-chloro-N^6-cyclopentylAdo), [^3H]NECA (5′-N-ethylcarboxamidoAdo), and [^3H]HEMADO (2-hexynyl-N^6-methylAdo) were used as respective radioligands. The results are reported as Ki values in nM (± standard errors) (Table 1). In the case of A2BAR, the potency of selected compounds was determined through a functional GloSensor cAMP assay.
as §1, §2

[4] = tested on: PC3 prostate cancer cell line; experiment: Sulforhodamine B (SRB) cell growth inhibition assay; conditions: for GI50 / CC50 / IC100: Homo sapiens, 48 h; for CC50: read-out: LC50 (μM); for IC100: read-out: TGI (μM); for TGI: PC3, 48 h, concentration to inhibit 100% of cell growth, mean ± SD
[5] = molecular target: T3, human recombinant A2AAR (Homo sapiens, UniProt P29274); experiment: Radioligand binding assay, displacement of [3H]NECA in CHO cell membranes; conditions: mean ± S.E., n = 3-5, read-out: hA2AR (Ki nM)
Description: as §3, §1, §2

[6] = tested on: human prostate (PC3), colon (Caco-2) and hepatocyte (Hep G2) carcinomas; parameters: method as in PMID 29763615; conditions: all three tumor cell lines PC3, Caco-2, Hep G2; cited from earlier work
[7] = tested on: hepatocellular carcinoma and moderate hepatic dysfunction; parameters: method as in PMID 33430312; conditions: cited from earlier work
[8] = molecular target: T3, human recombinant A2AAR; conditions: [3H]NECA, CHO membranes; read-out: hA2AR (Ki nM); cited from earlier work
[9] = molecular target: T2, human recombinant A1AR; conditions: [3H]CCPA, CHO membranes; read-out: hA1R (Ki nM); cited from earlier work
[10] = molecular target: T1, human A3AR; conditions: cited from earlier work
[11] = A3AR affinity repeated in Table 2, read-out: A3AR
[12] = [3H]HEMADO, CHO membranes, read-out: hA3R (Ki nM)

T3 sequence (P29274 whole entry): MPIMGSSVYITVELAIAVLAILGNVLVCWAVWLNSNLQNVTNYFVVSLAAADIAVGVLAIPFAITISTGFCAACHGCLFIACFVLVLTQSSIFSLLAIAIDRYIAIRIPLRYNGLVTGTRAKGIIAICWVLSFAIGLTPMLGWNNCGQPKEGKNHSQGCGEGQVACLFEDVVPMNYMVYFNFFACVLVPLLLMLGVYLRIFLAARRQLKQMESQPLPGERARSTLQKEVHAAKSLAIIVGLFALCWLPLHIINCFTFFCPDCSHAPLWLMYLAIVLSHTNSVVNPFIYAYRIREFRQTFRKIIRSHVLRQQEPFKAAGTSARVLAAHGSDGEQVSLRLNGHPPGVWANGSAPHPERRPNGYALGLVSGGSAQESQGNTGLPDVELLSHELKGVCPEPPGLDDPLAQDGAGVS

SMILES | IC50 [1] | functional behaviour at A3AR (agonist/antagonist) [1] | A1/A3 [2] | A2A/A3 [2] | Ki [2] | Ki [3] | GI50 [4] | CC50 [4] | IC100 [4] | TGI [4] | Ki [5] | anticancer effect (cell growth inhibition) [6] | primary end-point of phase II trial [7] | safety profile in phase II trial [7] | EC50 [1] | cytotoxic activity ([4]; PC3, at concentrations up to 500 µM) | Ki [8] | Ki [9] | Ki [10, 11] | Ki [10, 12]
OC[C@H]1O[C@@H](n2cnc3c(NCC(c4ccccc4)c4ccccc4)nc(C#Cc4ccccc4)nc32)[C@H](O)[C@@H]1O [Compound 12, N^6-(2,2-Diphenylethyl)-2-phenylethynyladenosine] | 153 ± 12 nM | antagonists | 2 fold | 4 fold | 106 ± 25 nM | 211 ± 53 nM | 14000 ± 900 nM | 59 ± 10.1 µM | 29 µM | 29000 ± 4900 nM | 450 ± 84 nM |  |  |  |  |  |  |  |  | 
CCCCC#Cc1nc(NCCc2ccccc2)c2ncn([C@@H]3O[C@H](CO)[C@@H](O)[C@H]3O)c2n1 [Compound 10, 2-Hexynyl-N^6-(2-phenylethyl)adenosine] | 31 ± 6 nM | antagonists | 86 fold | 97 fold | 1.5 ± 0.3 nM | 129 ± 8.2 nM | 13000 ± 1600 nM | 452 ± 10.5 µM | 77 µM | 77000 ± 2900 nM | 146 ± 48 nM |  |  |  |  |  |  |  |  | 
CNC(=O)[C@H]1O[C@@H](n2cnc3c(NCc4cccc(I)c4)nc(Cl)nc32)[C@H](O)[C@@H]1O [Cl-IB-MECA, 2-chloro-N^6-(3-iodobenzyl)adenosine-5′-N-methyluronamide, reference compound] |  |  |  |  |  |  | 18000 ± 400 nM |  | 44 µM | 44000 ± 3300 nM |  | good anticancer effect | did not meet its primary end-point | favorable safety profile |  |  |  |  |  | 
OC[C@H]1O[C@@H](n2cnc3c(NCCc4ccccc4)nc(I)nc32)[C@H](O)[C@@H]1O [Compound 8, 2-Iodo-N^6-(2-phenylethyl)adenosine] |  |  | 29 fold | 824 fold | 5 ± 1.2 nM | 144 ± 32 nM | 42000 ± 2700 nM | 301 ± 13.4 µM | 113 µM | 113000 ± 6700 nM | 4120 ± 998 nM |  |  |  |  |  |  |  |  | 
OC[C@H]1O[C@@H](n2cnc3c(NCCc4ccccc4)nc(Cl)nc32)[C@H](O)[C@@H]1O [Compound 15, 2-Chloro-N^6-(2-phenylethyl)adenosine] |  | full A3AR agonist; also recorded: A3AR full agonists | 68 fold | 27,500 fold | 0.024 ± 0.005 nM | 1.64 ± 0.37 nM | 51000 ± 5200 nM | > 500 µM | 262 µM | 262000 ± 8300 nM | 660 ± 129 nM |  |  |  | 14 ± 3.4 nM | no cytotoxic activity |  |  |  | 
OC[C@H]1O[C@@H](n2cnc3c(NCCc4ccccc4)nc(C#Cc4ccccc4)nc32)[C@H](O)[C@@H]1O [Compound 11, 2-Phenylethynyl-N^6-(2-phenethyl)adenosine] | 79 ± 15 nM | antagonists | 213 fold | 785 fold | 3.8 ± 0.6 nM | 809 ± 117 nM | 2500 ± 800 nM | 151 ± 8.9 µM | 19 µM | 19000 ± 6100 nM | 2980 ± 271 nM |  |  |  |  |  |  |  |  | 
OC[C@H]1O[C@@H](n2cnc3c(NCC(c4ccccc4)c4ccccc4)nc(Cl)nc32)[C@H](O)[C@@H]1O [Compound 16, 2-Chloro-N^6-(2,2-diphenylethyl)-adenosine] |  |  | 6 fold | 2046 fold | 0.13 ± 0.01 nM | 0.76 ± 0.2 nM | 35000 ± 3100 nM | 253 ± 11.5 µM | 94 µM | 94000 ± 4100 nM | 266 ± 35 nM |  |  |  |  |  |  |  |  | 
OC[C@H]1O[C@@H](n2cnc3c(NCCc4ccccc4)nc(NCCc4ccccc4)nc32)[C@H](O)[C@@H]1O [Compound 5, 2-Phenylethylamino-N^6-(2-phenylethyl)adenosine] |  |  | 1082 fold | 4145 fold |  |  | 237000 ± 9400 nM | > 500 µM | > 500 µM | >500000 nM |  | very good antitumor activity |  |  |  |  | 1370 nM | 357 nM | 0.33 nM | 0.33 nM
CCCCC#Cc1nc(NCC(c2ccccc2)c2ccccc2)c2ncn([C@@H]3O[C@H](CO)[C@@H](O)[C@H]3O)c2n1 [Compound 4, 2-Hexynyl-N^6-(2,2-diphenylethyl)adenosine] | 380 ± 80 nM | antagonists | 36 fold | 6 fold |  |  | 16000 ± 500 nM | 80 ± 9.8 µM | 35 µM | 35000 ± 1500 nM |  | very good antitumor activity |  |  |  |  | 153 nM | 984 nM | 27 nM | 27 nM
OC[C@H]1O[C@@H](n2cnc3c(NCC(c4ccccc4)c4ccccc4)nc(I)nc32)[C@H](O)[C@@H]1O [Compound 9, 2-Iodo-N^6-(2,2-diphenylethyl)adenosine] |  |  | 17 fold | 113 fold | 11 ± 1.8 nM | 182 ± 25.4 nM | 24000 ± 1200 nM | 94 ± 3.5 µM | 48 µM | 48000 ± 3500 nM | 1240 ± 253 nM |  |  |  |  |  |  |  |  | 
OC[C@H]1O[C@@H](n2cnc3c(NCCc4ccccc4)nc(SCCc4ccccc4)nc32)[C@H](O)[C@@H]1O [Compound 13, N^6-(2-Phenylethyl)-2-phenylethylthioadenosine] |  |  | 9 fold | 112 fold | 30 ± 7.1 nM | 263 ± 19 nM | 41000 ± 4200 nM | > 500 µM | > 500 µM | >500000 nM | 3360 ± 752 nM |  |  |  |  |  |  |  |  | 

— paper PMC8879107, “A3 Adenosine Receptor Antagonists with Nucleoside Structures and Their Anticancer Activity” (Pharmaceuticals, 2022)
